Assay results published in patent US8338425B2, “Heterocyclic kinase inhibitors” (Concert Pharmaceuticals, Inc., priority 2007, dated 2012).
Where two headings read alike, the source gives them in different places.

Assay: Human liver microsome (HLM) metabolic stability assay
Format: in vitro ADME
Settings: pooled human liver microsomes, HLM 0.5 mg/mL, test compound 0.5 μM, NADPH, 37° C.
Description: Microsomal Assay: Human liver microsomes (20 mg/mL) were obtained from Xenotech, LLC (Lenexa, Kans.). β-nicotinamide adenine dinucleotide phosphate, reduced form (NADPH), magnesium chloride (MgCl2), and dimethyl sulfoxide (DMSO) were purchased from Sigma-Aldrich. The incubation mixtures were prepared according to Table 2:
Determination of Metabolic Stability: Two aliquots of this reaction mixture were used for a compound of this invention. The aliquots were incubated in a shaking water bath at 37° C. for 3 minutes. The test compound was then added into each aliquot at a final concentration of 0.5 μM. The reaction was initiated by the addition of cofactor (NADPH) into one aliquot (the other aliquot lacking NADPH served as the negative control). Both aliquots were then incubated in a shaking water bath at 37° C. Fifty microliters (50 μL) of the incubation mixtures were withdrawn in triplicate from each aliquot at 0, 5, 10, 20, and 30 minutes and combined with 50 μL of ice-cold acetonitrile to terminate the reaction. The same procedure was followed for dasatinib and for the positive control, 7-ethoxycoumarin. Testing was done in triplicate.
Data analysis: The in vitro half-lives (t1/2s) for test compounds were calculated from the slopes of the linear regression of % parent remaining (ln) vs incubation time relationship. in vitro t1/2=0.693/k
k=−[slope of linear regression of % parent remaining(ln) vs incubation time]
Data analysis was performed using Microsoft Excel Software.
The metabolic stability of compounds of Formula I was tested using pooled liver microsomal incubations. Full scan LC-MS analysis was then performed to detect major metabolites. Samples of the test compounds, exposed to pooled human liver microsomes, were analyzed using HPLC-MS (or MS/MS) detection. For determining metabolic stability, multiple reaction monitoring (MRM) was used to measure the disappearance of the test compounds. For metabolite detection, Q1 full scans were used as survey scans to detect the major metabolites.

[1] = 0-30 minutes, Experiment 1, read-out: t1/2 (min) Experiment 1
[2] = average of Experiments 1 and 2, read-out: t1/2 (min) Average
[3] = 0-30 minutes, Experiment 2, read-out: t1/2 (min) Experiment 2

half-life at 0.5 μM [1] [min] | half-life at 0.5 μM [2] [min] | half-life at 0.5 μM [3] [min] | Compound
17.7 | 17.9 | – | [2H]C([2H])(O)CN1CCN(c2cc(Nc3ncc(C(=O)Nc4c(Cl)cccc4C([2H])([2H])[2H])s3)nc(C)n2)CC1 [Compound 101, N-(2-Chloro-6-(methyl-d3)phenyl)-2-(6-(4-(2,2-d2-2-hydroxyethyl)piperazin-1-yl)-2-methylpyrimidin-4-ylamino)thiazole-5-carboxamide]
19.4 | 18.3 | 17.2 | [2H]C([2H])([2H])c1cccc(Cl)c1NC(=O)c1cnc(Nc2cc(N3CCN(C([2H])([2H])C([2H])([2H])O)CC3)nc(C)n2)s1 [Compound 103, N-(2-Chloro-6-(methyl-d3)phenyl)-2-(6-(4-(1,1,2,2-d4-2-hydroxyethyl)piperazin-1-yl)-2-methylpyrimidin-4-ylamino)thiazole-5-carboxamide]
17.3 | 17.8 | 18.2 | [2H]C([2H])([2H])c1cccc(Cl)c1NC(=O)c1cnc(Nc2cc(N3C([2H])([2H])C([2H])([2H])N(C([2H])([2H])C([2H])([2H])O)C([2H])([2H])C3([2H])[2H])nc(C)n2)s1 [Compound 115, N-(2-Chloro-6-(methyl-d3)phenyl)-2-(6-(4-(1,1,2,2-d4-2-hydroxyethyl)-(piperazin-d8)-1-yl)-2-methylpyrimidin-4-ylamino)thiazole-5-carboxamide]
19.6 | 19.1 | 18.5 | [2H]C1([2H])N(CCO)C([2H])([2H])C([2H])([2H])N(c2cc(Nc3ncc(C(=O)Nc4c(C)cccc4Cl)s3)nc(C)n2)C1([2H])[2H] [Compound 117, N-(2-Chloro-6-methylphenyl)-2-(6-(4-(2-hydroxyethyl)-(piperazin-d8)-1-yl)-2-methylpyrimidin-4-ylamino)thiazole-5-carboxamide]
16 | 15.3 | 14.6 | Cc1nc(Nc2ncc(C(=O)Nc3c(C)cccc3Cl)s2)cc(N2CCN(CCO)CC2)n1 [Dasatinib, 2-{6-[4-(2-Hydroxy-ethyl)-piperazin-1-yl]-2-methyl-pyrimidin-4-ylamino}-thiazole-5-carboxylic acid (2-chloro-6-methyl-phenyl)-amide, reference compound]
